Experimental data published in PMC10515483, “Structure–Reactivity Studies of 2-Sulfonylpyrimidines Allow Selective Protein Arylation” (Bioconjugate Chemistry, 2023).
In brackets after ≈: the same amount, converted by molar mass.

What was measured:
[1] = Solubility in KPi buffer by NMR with TMSP internal standard; conditions: 50 mM KPi aqueous buffer, pH 7, aqueous with cosolvent or surfactant or cyclodextrin, kinetic from dmso stock
[2] = GSH arylation rate constants (NMR; UV-vis for fast warheads); assay type: physicochemical; conditions: for k: Table S8, rate constants obtained at pH = 7; for k change (vs ref): ratio to rate constant of 4q, acceleration (+) or deceleration (-); for k/kref / ΔΔG≠1exp: relative to 4q; for ΔΔG≠1exp: via -RTln(k/kref)
Method in brief: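 Second-order rate constants k for GSH arylation derived from pseudo-first-order k′ (warhead:GSH 1:10), by normalized NMR integration of the disappearing warhead signal over 6 h; TMSP internal standard. KPi buffer with 5% d6-DMSO, pH 7.0 and 6.5, 20 °C; UV–vis used for fast warheads. Mean of ≥2 independent runs.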

β-catenin ARD = biological target: T1, β-catenin ARD (Homo sapiens, UniProt P35222); assay: Differential scanning fluorimetry (DSF); assay type: binding; conditions: 100 μM compound; 8 µM β-cat; read-out: Protein thermal stability ΔTm
T1 construct: vector pLipK-ARD (residues 150 – 662) was used; 6xHis-Lip (6xHis, lipoyl domain); made in house; host or cells: E. coli BL21(DE3) pRARE2
T1 sequence (P35222 150-662): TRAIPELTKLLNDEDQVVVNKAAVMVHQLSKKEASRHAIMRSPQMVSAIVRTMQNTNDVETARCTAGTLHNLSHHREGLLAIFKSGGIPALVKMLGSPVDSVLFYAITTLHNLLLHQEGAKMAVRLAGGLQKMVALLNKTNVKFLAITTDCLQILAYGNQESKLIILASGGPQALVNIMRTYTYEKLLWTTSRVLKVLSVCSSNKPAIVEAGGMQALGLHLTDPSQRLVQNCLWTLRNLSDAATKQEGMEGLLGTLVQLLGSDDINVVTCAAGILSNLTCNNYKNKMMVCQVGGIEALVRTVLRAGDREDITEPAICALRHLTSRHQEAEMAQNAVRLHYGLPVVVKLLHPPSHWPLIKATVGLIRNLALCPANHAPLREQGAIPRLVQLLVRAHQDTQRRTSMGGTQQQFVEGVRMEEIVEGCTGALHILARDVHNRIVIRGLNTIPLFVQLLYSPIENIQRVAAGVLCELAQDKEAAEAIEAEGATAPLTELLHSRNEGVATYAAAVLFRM
From the text: We also probed the general effect of 2-SPs on protein stability by using differential scanning fluorimetry (DSF). […] Mutants of the 25 kDa DNA-binding domain of the tumor suppressor p53 are notorious for their reduced thermal stability and denaturation/aggregation propensity.[37] The 56 kDa armadillo domain (ARD) of β-catenin mediates canonical Wnt signaling and plays a central role in embryogenesis and tissue homeostasis.[38] FGE (37 kDa) is the only known activator of human sulfatases, and its stability is susceptible to modification of its cysteines.[39] […]
Human β-catenin armadillo domain. β-catenin sequence was amplified by PCR (KOD DNA polymerase, Merck Millipore) from plasmid templates and cloned into bacterial expression vectors by restriction - free cloning. All plasmids were verified by sequencing. For protein pro duction, bacterial expression vector pLipK-ARD (residues 150 – 662) was used. 6xHis-Lip-tagged recombinant proteins were purified from BL21(DE3) pRARE2 E. coli bacterial strains. Bacteria were grown in LB media supplemented with appropriate antibiotic to OD600 0.6, then dropped to a lower temperature (16 – 24 °C) and induced at OD600 0.8 by addition of 0.4 mM isopropyl β -D-1-thiogalactopyranoside (IPTG). Proteins were expressed overnight and bacteria were subsequently harvested by centrifugation, cell pelle ts shock-frozen in liquid nitrogen and stored at -80°C until use. Cell pellets were re -suspended in lysis buffer (25 mM Tris -HCl pH 8, 200 mM NaCl, 20 mM imidazole, 10 μg/mL DNAse, EDTA -free protease inhibitor cocktail) and lysed with an Emulsiflex C-3 (Avestin). Lysates were cleared by ultracentrifugation (140,000x rcf, 30 minutes, 4°C) and mixed with Ni-NTA agarose. Beads were washed multiple times with lysis buffer, and 6xHisLip - tagged protein was eluted with lysis buffer supplemented with 500 mM imidazo le. The protein was further purified by SEC on a HiPrep26/60 G200 (GE Healthcare) into the final buffer of 200 mM NaCl, 25 mM Tris pH 7.4, 0.06% NaN3, 1 mM DTT, and protein purity was assessed by SDS -PAGE. Pure protein fractions were concentrated using a 1 0 kDa MWCO Vivaspin 20 concentrator (Sartorius) to 17 – 28 mg/mL, then shock frozen as droplets in liquid nitrogen and stored at -80°C until use. […]

[3] = pH 6.5, measured by UV titrations
[4] = pH 7.0, measured by UV titrations

Compound	solubility [1]	k [2]	rate constant (k) for the reaction with GSH [2, 3]	rate constant (k) for the reaction with GSH [2, 4]	k change (vs ref) ([2]; pH 7.0)	k/kref [2]	ΔΔG≠1exp [2]	ΔTm at 100 µM (β-catenin ARD)	rate constant (k) for the reaction with GSH ([2]; pH 6.5, by NMR, KPi buffer, 5% DMSO-d6)	rate constant (k) for the reaction with GSH ([2]; pH 7.0, by NMR, KPi buffer, 5% DMSO-d6)
O=[N+]([O-])c1ccc(S(=O)(=O)c2ncccn2)cc1 [5f]	100 µM (≈ 26.5 µg/mL)	0.29 M⁻¹ s⁻¹	0.2 ± 0.09 M⁻¹ s⁻¹	0.29 ± 0.17 M⁻¹ s⁻¹	+12 fold	12	-1.46 kcal/mol	-0.1 ± 0.1 °C	–	–
O=S(=O)(NCc1ccccc1)c1ncccn1 [5g]	≥ 2000 µM	–	–	–	-63 fold	–	–	0.3 ± 0.3 °C	0.00015 ± 5e-05 M⁻¹ s⁻¹	0.0004 ± 0.0001 M⁻¹ s⁻¹
O=S(=O)(Oc1c(F)c(F)c(F)c(F)c1F)c1ncccn1 [5h]	100 µM (≈ 32.6 µg/mL)	24 M⁻¹ s⁻¹	5.4 ± 0.72 M⁻¹ s⁻¹	24 ± 1.1 M⁻¹ s⁻¹	+960 fold	960	-4.06 kcal/mol	-0.1 ± 0.1 °C	–	–
